Measured values from patent US20250195521A1 (Revolution Medicines, Inc., priority 2020, published 2025).
Read-outs that look alike come from different tables or passages of the source.

Assays:
[1] = molecular target: KRAS WT binding to BRAF RBD (Homo sapiens (Human), UniProt P01116+P62937); assay: Ras-Raf disruption/FRET/MOA assay, KRAS WT; assay type: biochemical
Method in brief: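 TR-FRET disruption assay: His6-tagged GMPPNP-loaded Ras (12.5 nM), GST-BRAF RBD (50 nM) and Cyclophilin A (25 μM) incubated with compound (10-point 3-fold series from 30 μM) 3 h at 25°C in HEPES pH 7.3 buffer with MgCl2 and NaCl. Anti-His Eu (10 nM)/anti-GST APC (50 nM) added, 1.5 h more; IC50 from FRET-ratio decrease versus DMSO.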

KRAS G13D = KRAS G13D (Homo sapiens (Human), UniProt P01116+P62937, G13D); assay: Ras-Raf disruption/FRET/MOA assay (BRAF RBD, Cyclophilin A); assay type: biochemical; settings: read-out: KRAS G13D FRET data IC50
Method in brief: (§1)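 TR-FRET read after 1.5 h with 10 nM anti-His Eu-W1024 and 50 nM anti-GST APC, following 3 h at 25 °C of GMPPNP-loaded His6-Ras (12.5 nM), GST-BRAF RBD (50 nM) and Cyclophilin A (25 μM) with compound from 30 μM final, 10 points, 3-fold. IC50 reported; pH 7.3 HEPES, 100 mM NaCl.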

KRAS G12S = KRAS G12S (Homo sapiens (Human), UniProt P01116+P62937, G12S); assay: as above; assay type: biochemical; settings: read-out: KRAS G12S FRET IC50
Method in brief: as §1

NRAS WT = NRAS WT (Homo sapiens (Human), UniProt P01111+P62937); assay: as above; assay type: biochemical
Method in brief: (§2)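 First, 25 μM Cyclophilin A, 12.5 nM His6-Ras-GMPPNP and 50 nM GST-BRAF RBD are mixed with diluted compound at pH 7.3. Next, 3 h at 25° C. Then 10 nM anti-His Eu-W1024 plus 50 nM anti-GST allophycocyanin for 1.5 h before TR-FRET reading.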

NRAS Q61R = NRAS Q61R (Homo sapiens (Human), UniProt P01111+P62937, Q61R); assay: as above; assay type: biochemical
Method in brief: as §2

KRAS G12D = KRAS G12D (Homo sapiens (Human), UniProt P01116+P62937, G12D); assay: as above; assay type: biochemical; settings: read-out: KRAS G12D FRET IC50
Method in brief: as §1

KRAS G13C = KRAS G13C (Homo sapiens (Human), UniProt P01116+P62937, G13C); assay: as above; assay type: biochemical; settings: read-out: KRAS G13C FRET IC50
Method in brief: as §1

KRAS WT = KRAS WT (Homo sapiens (Human), UniProt P01116+P62937); assay: as above; assay type: biochemical; settings: read-out: KRAS WT FRET data IC50
Method in brief: as §1

KRAS G12V = KRAS G12V (Homo sapiens (Human), UniProt P01116+P62937, G12V); assay: as above; assay type: biochemical; settings: read-out: KRAS G12V FRET IC50
Method in brief: as §1

KRAS G12C = KRAS G12C (Homo sapiens (Human), UniProt P01116+P62937, G12C); assay: as above; assay type: biochemical; settings: read-out: KRAS G12C FRET IC50
Method in brief: as §1

KRAS Q61H = KRAS Q61H (Homo sapiens (Human), UniProt P01116+P62937, Q61H); assay: as above; assay type: biochemical
Method in brief: as §1

NRAS Q61K = NRAS Q61K (Homo sapiens (Human), UniProt P01111+P62937, Q61K); assay: as above; assay type: biochemical
Method in brief: as §2

NRAS G12C = NRAS G12C (Homo sapiens (Human), UniProt P01111+P62937, G12C); assay: as above; assay type: biochemical; settings: read-out: NRAS G12C FRET data IC50
Method in brief: as §2

[2] = system: NCI-H358 cells (K-Ras G12C); assay: CellTiter-Glo cell viability, NCI-H358; assay type: cell-based, human; settings: Homo sapiens, NCI-H358, 120 h, read-out: H358 Cell Viability IC50
Method in brief: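 Compounds dispensed directly onto seeded cells; on day 5 plates equilibrated ~30 min to room temperature and luminescence read. Signal normalized to DMSO average (%) and fitted by four-parameter logistic.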

NRAS Q61K, sequence (P01111 whole entry Q61K): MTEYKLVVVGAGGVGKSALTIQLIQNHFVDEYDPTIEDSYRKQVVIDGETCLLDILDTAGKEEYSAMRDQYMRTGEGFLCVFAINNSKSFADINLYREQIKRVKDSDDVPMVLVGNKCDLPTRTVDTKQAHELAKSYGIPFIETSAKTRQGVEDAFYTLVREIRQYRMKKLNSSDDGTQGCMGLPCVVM
NRAS Q61K, sequence (P62937 whole entry): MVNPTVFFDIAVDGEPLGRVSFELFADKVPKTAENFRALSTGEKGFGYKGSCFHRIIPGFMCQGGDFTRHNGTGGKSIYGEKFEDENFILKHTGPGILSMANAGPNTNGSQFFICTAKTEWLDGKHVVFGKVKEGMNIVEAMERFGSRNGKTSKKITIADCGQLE
KRAS G12V, sequence (P01116 other isoform, or with tags, fused parts or gaps G12V): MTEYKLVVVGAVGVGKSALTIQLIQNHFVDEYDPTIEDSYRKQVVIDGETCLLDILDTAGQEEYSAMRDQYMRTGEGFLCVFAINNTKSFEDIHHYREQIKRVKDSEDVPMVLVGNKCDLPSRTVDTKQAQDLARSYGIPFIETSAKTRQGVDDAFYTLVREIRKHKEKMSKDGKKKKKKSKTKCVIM
KRAS G12V, sequence (P62937 whole entry): as the sequence (P62937 whole entry) above
NRAS G12C, sequence (P01111 whole entry G12C): as the sequence (P01111 whole entry Q61K) above, with G12C, K61Q counted along it
NRAS G12C, sequence (P62937 whole entry): as the sequence (P62937 whole entry) above
KRAS WT binding to BRAF RBD, sequence (P01116 other isoform, or with tags, fused parts or gaps): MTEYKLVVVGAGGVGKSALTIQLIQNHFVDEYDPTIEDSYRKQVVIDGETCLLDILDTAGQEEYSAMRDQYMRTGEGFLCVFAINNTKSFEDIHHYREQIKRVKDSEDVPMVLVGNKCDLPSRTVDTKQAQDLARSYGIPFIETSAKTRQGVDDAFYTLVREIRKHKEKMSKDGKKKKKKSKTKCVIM
KRAS WT binding to BRAF RBD, sequence (P62937 whole entry): as the sequence (P62937 whole entry) above
KRAS WT, sequence (P01116 other isoform, or with tags, fused parts or gaps): as the sequence (P01116 other isoform, or with tags, fused parts or gaps) above
KRAS WT, sequence (P62937 whole entry): as the sequence (P62937 whole entry) above
NRAS Q61R, sequence (P01111 whole entry Q61R): as the sequence (P01111 whole entry Q61K) above, with K61R counted along it
NRAS Q61R, sequence (P62937 whole entry): as the sequence (P62937 whole entry) above
KRAS G13D, sequence (P01116 other isoform, or with tags, fused parts or gaps G13D): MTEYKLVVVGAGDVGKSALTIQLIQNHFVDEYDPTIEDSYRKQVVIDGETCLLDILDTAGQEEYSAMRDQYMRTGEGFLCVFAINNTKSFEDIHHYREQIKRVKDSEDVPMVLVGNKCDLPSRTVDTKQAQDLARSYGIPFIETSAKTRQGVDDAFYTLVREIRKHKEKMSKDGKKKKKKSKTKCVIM
KRAS G13D, sequence (P62937 whole entry): as the sequence (P62937 whole entry) above
KRAS G12D, sequence (P01116 other isoform, or with tags, fused parts or gaps G12D): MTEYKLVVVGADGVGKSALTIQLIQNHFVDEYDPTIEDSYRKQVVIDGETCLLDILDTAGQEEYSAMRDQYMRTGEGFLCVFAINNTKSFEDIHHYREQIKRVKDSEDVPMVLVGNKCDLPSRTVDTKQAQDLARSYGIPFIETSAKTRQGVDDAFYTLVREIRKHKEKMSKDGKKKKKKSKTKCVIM
KRAS G12D, sequence (P62937 whole entry): as the sequence (P62937 whole entry) above
KRAS G13C, sequence (P01116 other isoform, or with tags, fused parts or gaps G13C): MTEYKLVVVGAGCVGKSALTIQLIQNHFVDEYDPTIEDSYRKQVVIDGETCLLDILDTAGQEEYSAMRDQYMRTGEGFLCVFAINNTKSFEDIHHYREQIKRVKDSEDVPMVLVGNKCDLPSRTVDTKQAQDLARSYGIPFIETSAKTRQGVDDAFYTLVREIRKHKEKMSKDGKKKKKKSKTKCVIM
KRAS G13C, sequence (P62937 whole entry): as the sequence (P62937 whole entry) above
NRAS WT, sequence (P01111 whole entry): as the sequence (P01111 whole entry Q61K) above, with K61Q counted along it
NRAS WT, sequence (P62937 whole entry): as the sequence (P62937 whole entry) above
KRAS Q61H, sequence (P01116 other isoform, or with tags, fused parts or gaps Q61H): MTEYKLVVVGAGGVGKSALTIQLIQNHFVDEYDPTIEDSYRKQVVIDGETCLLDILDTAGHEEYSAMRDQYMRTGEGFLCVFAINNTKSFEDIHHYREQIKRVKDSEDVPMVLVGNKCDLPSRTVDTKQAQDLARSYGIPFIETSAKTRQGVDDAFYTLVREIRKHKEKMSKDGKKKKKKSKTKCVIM
KRAS Q61H, sequence (P62937 whole entry): as the sequence (P62937 whole entry) above
KRAS G12S, sequence (P01116 other isoform, or with tags, fused parts or gaps G12S): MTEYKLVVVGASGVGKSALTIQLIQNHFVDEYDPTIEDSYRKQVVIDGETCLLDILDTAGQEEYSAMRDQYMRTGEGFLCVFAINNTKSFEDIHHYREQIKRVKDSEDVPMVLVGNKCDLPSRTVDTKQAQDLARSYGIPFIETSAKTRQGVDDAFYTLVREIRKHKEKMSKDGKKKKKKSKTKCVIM
KRAS G12S, sequence (P62937 whole entry): as the sequence (P62937 whole entry) above
KRAS G12C, sequence (P01116-2 other isoform, or with tags, fused parts or gaps G12C): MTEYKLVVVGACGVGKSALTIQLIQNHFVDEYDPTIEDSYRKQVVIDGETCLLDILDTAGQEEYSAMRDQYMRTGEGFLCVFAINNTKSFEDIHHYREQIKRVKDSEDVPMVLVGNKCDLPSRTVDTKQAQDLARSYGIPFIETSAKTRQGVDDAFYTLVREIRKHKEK
KRAS G12C, sequence (P62937 whole entry): as the sequence (P62937 whole entry) above

| IC50 [1] | IC50 (KRAS G13D) | IC50 (KRAS G12S) | IC50 (NRAS WT) | IC50 (NRAS Q61R) | IC50 (KRAS G12D) | IC50 (KRAS G13C) | IC50 (KRAS WT) | IC50 (KRAS G12V) | IC50 (KRAS G12C) | IC50 (KRAS Q61H) | IC50 (NRAS Q61K) | IC50 (NRAS G12C) | IC50 ([2]; K-Ras G12C, 5-day treatment) | SMILES | IC50 [2] |
| --- | --- | --- | --- | --- | --- | --- | --- | --- | --- | --- | --- | --- | --- | --- | --- |
| 10 to 100 nM | 100 to 1000 nM | 100 to 1000 nM | 10 to 100 nM | 100 to 1000 nM | 100 to 1000 nM | 100 to 1000 nM | 10 to 100 nM | 100 to 1000 nM | 10 to 100 nM | 10 to 100 nM | – | 10 to 100 nM | 10 to 100 nM | CCn1c(-c2cccnc2[C@H](C)OC)c2c3cc(ccc31)-c1csc(n1)C[C@H](NC(=O)[C@H](C(C)C)N(C)C(=O)N1CCC[C@H](N(C)C)CC1)C(=O)N1CCC[C@H](N1)C(=O)OCC(C)(C)C2 [Compound A493] | – |
| 10 to 100 nM | 1000 to 10000 nM | 100 to 1000 nM | 100 to 1000 nM | 100 to 1000 nM | 1000 to 10000 nM | 1000 to 10000 nM | 100 to 1000 nM | 1000 to 10000 nM | 100 to 1000 nM | 100 to 1000 nM | 100 to 1000 nM | 100 to 1000 nM | 10 to 100 nM | CCn1c(-c2cccnc2[C@H](C)OC)c2c3cc(ccc31)-c1csc(n1)C[C@H](NC(=O)[C@H](C(C)C)N(C)C(=O)N(C)C1(C)COC1)C(=O)N1CCC[C@H](N1)C(=O)OCC(C)(C)C2 [Compound A527] | – |
| 10 to 100 nM | 100 to 1000 nM | 10 to 100 nM | 10 to 100 nM | 100 to 1000 nM | 100 to 1000 nM | 100 to 1000 nM | 10 to 100 nM | 100 to 1000 nM | 10 to 100 nM | 10 to 100 nM | – | 10 to 100 nM | 10 to 100 nM | CCn1c(-c2cccnc2[C@H](C)OC)c2c3cc(ccc31)-c1csc(n1)C[C@H](NC(=O)[C@H](C(C)C)N(C)C(=O)N1CCN3C(=O)CN(C)C[C@H]3C1)C(=O)N1CCC[C@H](N1)C(=O)OCC(C)(C)C2 [Compound A537] | – |
| 10 to 100 nM | 100 to 1000 nM | 100 to 1000 nM | 100 to 1000 nM | 100 to 1000 nM | 1000 to 10000 nM | 100 to 1000 nM | 100 to 1000 nM | 100 to 1000 nM | 100 to 1000 nM | 100 to 1000 nM | 100 to 1000 nM | 100 to 1000 nM | 100 to 1000 nM | CCn1c(-c2cccnc2[C@H](C)OC)c2c3cc(ccc31)-c1csc(n1)C[C@H](NC(=O)[C@H](C(C)C)N(C)C(=O)N1CC3(CCN(C)C3)C1)C(=O)N1CCC[C@H](N1)C(=O)OCC(C)(C)C2 [Compound A602] | – |

More lines, now with the values behind:

| SMILES | IC50 [1] | IC50 (KRAS G13D) | IC50 (KRAS G12S) | IC50 (NRAS WT) | IC50 (NRAS Q61R) | IC50 (KRAS G12D) | IC50 (KRAS G13C) | IC50 (KRAS WT) | IC50 (KRAS G12V) | IC50 (KRAS G12C) | IC50 (KRAS Q61H) | IC50 (NRAS Q61K) | IC50 (NRAS G12C) | IC50 ([2]; K-Ras G12C, 5-day treatment) | IC50 [2] |
| --- | --- | --- | --- | --- | --- | --- | --- | --- | --- | --- | --- | --- | --- | --- | --- |
| CCn1c(-c2cccnc2[C@H](C)OC)c2c3cc(ccc31)-c1csc(n1)C[C@H](NC(=O)C1CC1)C(=O)N1CCC[C@H](N1)C(=O)OCC(C)(C)C2 [Compound A367] | 10 to 100 nM | 1000 to 10000 nM | 100 to 1000 nM | 100 to 1000 nM | 1000 to 10000 nM | 1000 to 10000 nM | 100 to 1000 nM | 100 to 1000 nM | 100 to 1000 nM | 100 to 1000 nM | 100 to 1000 nM | 100 to 1000 nM | 100 to 1000 nM | 100 to 1000 nM | – |
| CCn1c(-c2cccnc2[C@H](C)OC)c2c3cc(ccc31)-c1cc(O)cc(c1)C[C@H](NC(=O)[C@H](C(C)C)N(C)C(=O)[C@H]1CCN(C(=O)[C@@H](C)N(C)C)C1)C(=O)N1CCC[C@H](N1)C(=O)OCC(C)(C)C2 [Compound A386] | 10 to 100 nM | 10 to 100 nM | 10 to 100 nM | – | – | 10 to 100 nM | 10 to 100 nM | 10 to 100 nM | 100 to 1000 nM | 10 to 100 nM | – | – | 10 to 100 nM | 100 to 1000 nM | – |
| CCn1c(-c2cccnc2[C@H](C)OC)c2c3cc(ccc31)-c1csc(n1)C[C@H](NC(=O)[C@H](C(C)C)N(C)C(=O)N1CCO[C@@]3(CCN(C)C3)C1)C(=O)N1CCC[C@H](N1)C(=O)OCC(C)(C)C2 [Compound A436] | 10 to 100 nM | 100 to 1000 nM | 100 to 1000 nM | 100 to 1000 nM | 100 to 1000 nM | 100 to 1000 nM | 100 to 1000 nM | 100 to 1000 nM | 100 to 1000 nM | 100 to 1000 nM | 100 to 1000 nM | 100 to 1000 nM | 10 to 100 nM | 10 to 100 nM | – |
| CCn1c(-c2cccnc2[C@H](C)OC)c2c3cc(ccc31)-c1csc(n1)C[C@H](NC(=O)[C@H](C(C)C)N(C)C(=O)N1CC[C@]3(CCNC3=O)C1)C(=O)N1CCC[C@H](N1)C(=O)OCC(C)(C)C2 [Compound A479] | 10 to 100 nM | 1000 to 10000 nM | 1000 to 10000 nM | 100 to 1000 nM | 1000 to 10000 nM | 1000 to 10000 nM | 1000 to 10000 nM | 1000 to 10000 nM | 1000 to 10000 nM | 100 to 1000 nM | 100 to 1000 nM | 100 to 1000 nM | 100 to 1000 nM | – | – |
| CCn1c(-c2cccnc2[C@H](C)OC)c2c3cc(ccc31)-c1csc(n1)[C@@H](OC)[C@H](NC(=O)[C@H](C(C)C)N(C)C(=O)N(C)C)C(=O)N1CCC[C@H](N1)C(=O)OCC(C)(C)C2 [Compound A598, (2S)—N-((6^3S,3S,4S,Z)-1^1-ethyl-3-methoxy-1^2-(2-((S)-1-methoxyethyl)pyridin-3-yl)-10,10-dimethyl-5,7-dioxo-6^1,6^2,6^3,6^4,6^5,6^6-hexahydro-1^1H-8-oxa-2 (4,2)-thiazola-1 (5,3)-indola-6 (1,3)-pyridazinacycloundecaphane-4-yl)-3-methyl-2-(1,3,3-trimethylureido) butanamide] | 10 to 100 nM | 100 to 1000 nM | 100 to 1000 nM | 100 to 1000 nM | 100 to 1000 nM | 1000 to 10000 nM | 100 to 1000 nM | 100 to 1000 nM | 100 to 1000 nM | 10 to 100 nM | 100 to 1000 nM | – | 10 to 100 nM | – | 100 to 1000 nM |
